Data taken from US6242601A, “Heterocyclic sulfamides” (Hoffman-La Roche Inc., priority 1999, dated 2001).

Columns and labels:
isolated rat aorta rings = target: T1, isolated rat aorta rings (Rattus norvegicus, UniProt P26684); assay: Inhibition of endothelin-induced contractions in isolated rat aorta rings; set-up: species or system adult Wistar-Kyoto rats; conditions: rat aorta rings without endothelium, 37° C.; endothelin-1 cumulative; from dose ratio; read-out: pA2 (converted)
T1 construct: Rings with a length of 5 mm were cut out from the thorax aorta of adult Wistar-Kyoto rats; from tissue; host or cells: thoracic aorta of adult Wistar-Kyoto rats, endothelium removed
T1 sequence (P26684 21-426): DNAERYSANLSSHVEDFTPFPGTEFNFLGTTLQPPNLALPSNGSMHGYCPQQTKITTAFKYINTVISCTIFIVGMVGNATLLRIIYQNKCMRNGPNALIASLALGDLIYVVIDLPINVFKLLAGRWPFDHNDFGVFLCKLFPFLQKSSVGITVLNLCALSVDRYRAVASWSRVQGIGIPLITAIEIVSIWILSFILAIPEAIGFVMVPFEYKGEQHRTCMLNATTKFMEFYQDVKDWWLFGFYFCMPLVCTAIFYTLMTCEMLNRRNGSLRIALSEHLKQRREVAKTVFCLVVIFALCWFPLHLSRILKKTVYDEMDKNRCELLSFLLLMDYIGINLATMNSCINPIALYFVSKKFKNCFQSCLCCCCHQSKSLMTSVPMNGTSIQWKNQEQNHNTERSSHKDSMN
Protocol: Rings with a length of 5 mm were cut out from the thorax aorta of adult Wistar-Kyoto rats. The endothelium was removed by lightly rubbing the internal surface. Each ring was immersed at 37° C. in 10 ml of Krebs-Henseleit solution in an isolated bath while gassing with 95% O2 and 5% CO2. The isometric stretching of the rings was measured. The rings were stretched to a pre-tension of 3 g.
The corresponding pA2 value, which is a measure of the activity of the test compound, was calculated using a computer programme according to the following equation from the "dose ratio" DR for each individual dosage-activity curve.
pA2 =log(DR-1)-log(antagonist-concentration)

[1] = target: T2, recombinant human ETA receptors (Homo sapiens, UniProt P25101); assay: Inhibition of endothelin binding on recombinant human ETA receptors expressed in CHO cells ([125I]ET-1, whole attached cells); set-up: expressed in transfected cells; host or cells: CHO cells; conditions: 35 pM [125I]ET-1, 2 h, 22° C.
T2 sequence (P25101 21-427): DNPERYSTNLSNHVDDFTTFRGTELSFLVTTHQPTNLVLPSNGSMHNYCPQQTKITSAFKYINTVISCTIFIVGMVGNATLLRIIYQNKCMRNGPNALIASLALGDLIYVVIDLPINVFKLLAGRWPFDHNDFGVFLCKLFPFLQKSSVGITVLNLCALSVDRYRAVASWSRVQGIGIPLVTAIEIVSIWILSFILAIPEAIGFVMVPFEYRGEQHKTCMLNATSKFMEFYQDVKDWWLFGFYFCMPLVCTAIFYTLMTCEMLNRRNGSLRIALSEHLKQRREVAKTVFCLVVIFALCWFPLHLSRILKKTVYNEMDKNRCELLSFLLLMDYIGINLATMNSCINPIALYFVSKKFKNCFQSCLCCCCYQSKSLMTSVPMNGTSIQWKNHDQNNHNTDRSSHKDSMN
Protocol: II. […] Cell culture. CHO cells, expressing recombinant human ETA receptor are grown in Minimal Essential Alpha Medium (Gibco Laboratories, Paisley, Scotland) supplemented with 0.1 μM methotrexate, 5% dialyzed fetal calf serum, 100 U/ml of penicillin and 100 μg/ml of streptomycin. Binding assays with whole attached cells are performed in 500 μl Dulbecco's Eagle medium (DMEM) containing 2 mg/ml bovine serum albumin and 25 mM Hepes. After incubation (2 h, 22° C.) in the presence of 35 pM [^125 I]ET-1 and increasing concentrations of various antagonists, the cells are extensively washed and finally solubilized in 1% (w/v) SDS, 0.5 M NaOH and 100 mM EDTA. Each assay is performed three times in triplicates and non specific binding is assessed in the presence of 100 nM unlabelled ET-1. Specific binding is defined as the difference between total binding and non specific binding. IC50 values are determined after logit/log transformation of the binding data.

[2] = Pharmacokinetics of the endothelin receptor antagonists after oral gavage in rats; format: in vivo; conditions: rat, plasma, 5 mg/kg in DMSO, Wistar rats, bioassay; for AUC: read-out: Area under the plasma concentration time curve; for Cmax: read-out: Peak concentration in rat plasma
Protocol: IV. […] The test compounds were dissolved in DMSO at a concentration of 5 mg/mL and administered orally by gavage at a dose of 1 mL/kg body weight corresponding to 5 mg/kg body weight. Two rats were administered per test compound. Blood samples were collected from the retro-orbital sinus at 1 and 5 h post dose in one rat, and at 3 and 7 h post dose in the other rat. In addition a terminal 24 h blood sample was collected from both rats by heart puncture. Blood was collected on EDTA-NaF. Plasma was derived by centrifugation at 2000 g at +4° C. for 15 min. Plasma samples were assayed for active drug related material with a bioassay, based on the binding competition of tested compounds and ^125 I ET-1 on recombinant ETA receptors. Quantitation of plasma samples was by comparison to a calibration curve build up from control rat plasma spiked with known concentrations of the test compounds.

Row | Structure (SMILES) | Kb (isolated rat aorta rings) [nM] | IC50 [1] [nM] | AUC [2] [ng·h/mL] | Cmax [2] [ng/mL]
1 | COc1ccccc1Oc1c(NS(=O)(=O)c2ccc(C)cn2)nc(-c2cccc(O)c2)nc1OC [Example 1, 5-methyl-pyridine-2-sulfonic acid [2-(3-hydroxy-phenyl)-6-methoxy-5-(2-methoxy-phenoxy)-pyrimidin-4-yl]-amide] | ≤ 6.31 | ≤ 10 | – | –
2 | COc1ccccc1Oc1c(NS(=O)(=O)c2ccc(C)cn2)nc(-c2ccnc(C(=O)O)c2)nc1OC [Example 21, 4-[4-methoxy-5-(2-methoxy-phenoxy)-6-(5-methyl-pyridine-2-sulfonylamino)-pyrimidin-2-yl]-pyridine-2-carboxylic acid] | ≤ 6.31 | ≤ 10 | – | –
3 | CCOC(=O)c1cc(-c2nc(NS(=O)(=O)c3ccc(C)cn3)c(Oc3ccccc3OC)c(OC)n2)ccn1 [Example 23, 4-[4-methoxy-5-(2-methoxy-phenoxy)-6-(5-methyl-pyridine-2-sulfonylamino)-pyrimidin-2-yl]-pyridine-2-carboxylic acid ethyl ester] | ≤ 6.31 | ≤ 10 | – | –
4 | COc1ccccc1Oc1c(NS(=O)(=O)c2ccc(C(C)C)cn2)nc(-c2ccnc(C(N)=O)c2)nc1OC [Example 42, 4-[4-(5-isopropyl-pyridine-2-sulfonylamino)-6-methoxy-5-(2-methoxy-phenoxy)-pyrimidin-2-yl]-pyridine-2-carboxylic acid amide] | ≤ 6.31 | – | ≥ 10000 | ≥ 1500
5 | COc1ccccc1Oc1c(NS(=O)(=O)c2ccc(C(C)C)cn2)nc(-c2ccnc(C(=N)NO)c2)nc1OC [Example 55, N-hydroxy-4-[4-(5-isopropyl-pyridine-2-sulfonylamino)-6-methoxy-5-(2-methoxy-phenoxy)-pyrimidin-2-yl]-pyridine-2-carboxamidine] | ≤ 6.31 | ≤ 10 | – | –

More lines, now with the values ahead:

Row | Kb (isolated rat aorta rings) [nM] | IC50 [1] [nM] | AUC [2] [ng·h/mL] | Cmax [2] [ng/mL] | Structure (SMILES)
6 | ≤ 6.31 | ≤ 10 | ≥ 10000 | ≥ 1500 | COc1ccccc1Oc1c(NS(=O)(=O)c2ccc(C)cn2)nc(-c2cccc(OCCO)c2)nc1OC [Example 7, 5-methyl-pyridine-2-sulfonic acid [2-[3-(2-hydroxy-ethoxy)-phenyl]-6-methoxy-5-(2-methoxy-phenoxy)-pyrimidin-4-yl]-amide]
7 | ≤ 6.31 | – | ≥ 10000 | ≥ 1500 | COc1ccccc1Oc1c(NS(=O)(=O)c2ccc(C(C)C)cn2)nc(-c2ccnc(CNC(C)=O)c2)nc1OC [Example 52, N-{4-[4-(5-isopropyl-pyridine-2-sulfonylamino)-6-methoxy-5-(2-methoxy-phenoxy)-pyrimidin-2-yl]-pyridin-2-ylmethyl}-acetamide]
